From paper PMC3604156 (Transplantation, 2013)
Read-outs that look alike come from different tables or passages of the source.

Tests used:
[1] = type: in vivo, human; details: for AUC0–inf: whole blood, single oral 5 mg/kg CsA, mean ± SD
[2] = type: in vivo, human; details: expressors vs nonexpressors

AUCAM19/AUCAM1 ratio, higher in CYP3A5 expressors compared to nonexpressors ([1]; expressors vs nonexpressors): 46.9% | average blood AUC, higher in CYP3A5 expressors compared to nonexpressors ([1]; expressors vs nonexpressors): 47.4% | AUC0–inf ([1]; CYP3A5 expressors (n=12)): 1360 ± 602 ng·h/mL | AUC0–inf ([1]; CYP3A5 nonexpressors (n=12)): 923 ± 343 ng·h/mL | average cumulative amount excreted in urine, higher in CYP3A5 expressors compared to nonexpressors [2]: 48%
SMILES: CC[C@@H]1NC(=O)[C@H]([C@H](O)[C@H](C)C/C=C/CO)N(C)C(=O)[C@H](C(C)C)N(C)C(=O)[C@H](CC(C)C)N(C)C(=O)[C@H](CC(C)(C)O)N(C)C(=O)[C@@H](C)NC(=O)[C@H](C)NC(=O)[C@H](CC(C)C)N(C)C(=O)[C@H](C(C)C)NC(=O)[C@H](CC(C)C)N(C)C(=O)CN(C)C1=O [AM19]
